For data set [1], the system named is pilocarpine model. Briefly: Pilocarpine model, oral pre-treatment (salivation, first signal, seizure, death/survival). Set-up: time of occurrence of the first seizure: unit not given here. To be noted: for neuroprotection, survival/death profile after 24 hours: FIG. 7, 600 μg/kg, n=5 per group, compared with SEQ ID No. 1; for time of occurrence of the first salivation: Table 1; for time of occurrence of the first salivation / time of occurrence of the first signal / time of occurrence of the first seizure / time of death occurrence: oral, 10 minutes prior to pilocarpine 320 mg/kg i.p., individual animals; for time of occurrence of the first signal: Table 2; for time of occurrence of the first seizure: Table 3; for time of death occurrence: Table 4. Format: in vivo, Mus musculus. The method, then:
In some examples, the neuromodulatory/neuroprotective/anticonvulsive effects of the composition of the invention have been evaluated in vivo by oral administration to animals. The pharmaceutical composition of the invention was administered to mammals (Mus musculus or mouse) with an oral dose of treatment with different embodiments of the compound of the invention, compared to other compounds or to saline control. In these experiments, the test compounds were administered orally 10 minutes prior to (intraperitoneal) administration of pilocarpine. Pilocarpine hydrochloride (320 mg/kg, Merck), dissolved in 0.9% sterile saline, was given intraperitoneally for induction of SE (status epileticus) (Turski et al., 1983). In the Turski model, the neurotoxic effects begin about 15-25 minutes after the injection of Pilo, with the occurrence of motor and limbic seizures, the animals evolving to a state of continuous (clonic) seizures that characterize SE Sanabria and Cavalheiro, 2000).
In this embodiment, the anticonvulsive effect of the composition of the invention prepared according to Example 2 was evaluated by prior administration of the inventive composition and subsequent administration of pilocarpine to animals. FIG. 4 presents the results of the pilocarpine model, indicating the time for the first salivation with the administration of control, cannabidiol (30 mg/kg), the compound of the invention R1-N-AA1-K-AA2-R2, in which embodiment is the tetrapeptide of SEQ ID No. 1 (500 μg/kg).
In this embodiment, the neuromodulatory effect of the composition of the invention prepared according to Example 2 was evaluated by prior administration of the inventive composition and subsequent administration of pilocarpine to animals. Other test compounds were also evaluated as described below. Administration of pilocarpine leads to severe brain injury, neurotoxicity and usually culminates in the death of the animals. This substance was used in the experiments described below but its harmful neuronal/encephalic effects were inhibited by the prior administration of the composition of the present invention: the vast majority of the animals subjected to these experiments had no symptoms related to brain lesions and survived without apparent damage, in contrast to groups of animals treated with other known substances.
The composition of the invention was prepared according to Example 2 with due concentration correction, for comparison of the effects of SEQ ID No. 1, SEQ ID No. 7 and NFK, such compounds having been previously administered to the animal groups.
In this embodiment, the anticonvulsant effect of different embodiments of the compound of the invention with the structure represented by SEQ ID No. 1, SEQ ID No. 7, NFK, FKF, FKL, as well as the NF, FK, KF and KL dipeptides were evaluated in the pilocarpine model.

Data set [2] relates to pain threshold. Briefly: Pain threshold model, pressure apparatus on right paw. Format: in vivo, rats. The settings on record: oral, 0.5 to 0.25 mg/kg, individual animals. The method, then:
The compounds of the present invention have also been tested as analgesics or neuropathic pain modulators. To that end, the compounds PVNFKF, PVNFK, VNFKF, SEQ ID No. 1 were tested in the pain threshold model. The pain threshold was measured using a pressure apparatus (Ugo Basile, Italy), essentially as described (Randall and Selitto, 1957). Briefly, a force of increasing magnitude (16 g/s) was applied to the back of the right paw of rats. When animals react by kicking, the force in grams required to induce this response is the threshold of pain. Antinoniceptive activity was expressed as the increase in pain threshold compared to control animals.
The compounds of the invention were administered orally to the animals at doses of 0.5 to 0.25 mg/kg and saline was used as a control.

The target of data set [3] is CB1 receptor in Striatum membranes. The data set can be described thus: ELISA on Striatum membranes: CB1 recognition by conformation-sensitive anti-CB1 antibody after incubation with 1 µM ligand; assay 5. (ELISA stands for enzyme-linked immunosorbent assay.)
For data set [4] the target is unchanged. Briefly: ELISA on Striatum membranes: CB1 recognition by conformation-sensitive anti-CB1 antibody after incubation with 1 µM ligand; assay 4.
The target is the same in data set [5]. The data set can be described thus: ELISA on Striatum membranes: CB1 recognition by conformation-sensitive anti-CB1 antibody after incubation with 1 µM ligand; assay 3.
Data set [6] has the same target. The data set can be described thus: ELISA on Striatum membranes: CB1 recognition by conformation-sensitive anti-CB1 antibody after incubation with 1 µM ligand; assay 1.
Data set [7] has the same target. The data set can be described thus: ELISA on Striatum membranes: CB1 recognition by conformation-sensitive anti-CB1 antibody after incubation with 1 µM ligand; assay 2.
Data set [8] can be described thus: Stability tests under extreme conditions (freezing 24 hours; heating at 100° C. for 10 minutes), HPLC. Format: physicochemical. An excerpt:
In the vertical axis the area of the HPLC peak is shown. […] Statistical significance data are also shown, the asterisks indicating: (*) P<0.05 vs Control (***) P<0.005 vs Control; (****) P<0.0001 vs Control.

For data set [9], the system named is CB1 receptor. The data set can be described thus: Screening with anti-CB1 antibodies sensitive to activation/conformational changes, ELISA on Striatum membranes. To be noted: ligands 1 μM, Assay 1-5. Type of data set: binding. The method, then:
Antibodies sensitive to CB1 receptor activation were generated and characterized by their specificities. For screening compounds, Striatum membranes (5 μg per well) were plated on NUNC-Immuno 96-well plates (Nalge-Nunc) and dried at room temperature. Membranes were washed with PBS (phosphate buffered saline) and incubated with or without different ligands (1 μM) and the extent of receptor recognition by the antibodies was measured by ELISA. The results of the tests are shown in Table 5, which indicates the % binding to the CB1 receptor in relation to control: […]

Setting [10] is: heating at 100° C. for 10 minutes.

“And” between values parts separate entries of the source, which are not always exact repeats. Identical values can stand only once. “Also recorded” adds a separate entry of the source. Ends that are not written are not given here.

CB1 receptor in Striatum membranes, sequence (P21554 whole entry): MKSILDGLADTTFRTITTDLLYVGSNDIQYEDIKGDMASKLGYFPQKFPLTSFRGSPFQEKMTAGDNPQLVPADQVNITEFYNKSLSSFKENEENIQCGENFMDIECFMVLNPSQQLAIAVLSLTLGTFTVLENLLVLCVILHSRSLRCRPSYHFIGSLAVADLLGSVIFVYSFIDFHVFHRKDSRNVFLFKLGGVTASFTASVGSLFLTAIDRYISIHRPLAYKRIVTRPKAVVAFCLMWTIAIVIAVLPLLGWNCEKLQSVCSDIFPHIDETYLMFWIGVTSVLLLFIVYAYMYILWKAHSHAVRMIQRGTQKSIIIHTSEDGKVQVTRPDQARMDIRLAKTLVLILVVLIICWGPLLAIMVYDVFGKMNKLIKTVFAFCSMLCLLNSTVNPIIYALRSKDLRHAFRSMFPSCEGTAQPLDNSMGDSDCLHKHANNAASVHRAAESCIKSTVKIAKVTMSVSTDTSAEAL

Regarding NFK, in [1], the “neuroprotection, survival/death profile after 24 hours” value is reported as “equivalent to those obtained with SEQ ID No. 1”; the “time of occurrence of the first salivation” value was 1.38 min and 0.75 min and 0.42 min and 0.98 min; the “time of occurrence of the first signal” value was 6.28 min and 8.92 min and 4.83 min and 7.82 min; the “time of occurrence of the first seizure” value was 13.38 and 11.33 and 9.67 and 8 and 9.93. Besides, the “time of death occurrence” value in data set [1] was 16.83 min and 13.53 min and 11.7 min and 10.92 min and 10.87 min. Besides, the “occurrence of first salivation (in words)” value in data set [1] (FIG. 8) is reported as “inhibited or delayed the occurrence of first salivation”.

In the case of VNFKF, the “pain threshold, force” value is 85 grams and 40 grams and 35 grams and 50 grams (3×) in [2] (After 3 h); 70 grams (2×) and 65 grams (2×) and 75 grams (2×) in [2] (Immediate).

With “SEQ ID No. 7: tetrapeptide of SEQ ID No. 7, embodiment of R1-N-AA1-K-AA2-R2; sequence not printed in the text (NFKL; Synthesized in laboratory)”, in [1], the “neuroprotection, survival/death profile after 24 hours” value is “even better than those obtained with SEQ ID No. 1”; the “time of occurrence of the first salivation” value was 1.25 min (2×) and 1.183 min and 1.067 min and 2.45 min; the “time of occurrence of the first signal” value is 10.25 min and 9.317 min and 10.17 min (2×) and 3.83 min; the “time of occurrence of the first seizure” value was 15.33 (2×) and 18.4 and 30 and 27.3. Also, the “time of death occurrence” value in data set [1] is 26.63 min and 25.13 min and 13.5 min.

Turning to VDHp (peptide), the % binding to the CB1 receptor in relation to control was 113 % of control in data set [3]; 129 % of control in data set [4]; 131 % of control in data set [5]; 116 % of control in data set [6]; 114 % of control in data set [7].

On to PVNFKF [reference compound], for which the “pain threshold, force” value in data set [2] (After 3 h) was 45 grams (2×) and 30 grams and 55 grams (2×) and 65 grams; in [2] (Immediate) it was 75 grams (2×) and 65 grams and 60 grams and 70 grams and 80 grams.

Turning to `C=C(C)[C@@H]1CCC(C)=C[C@H]1c1c(O)cc(CCCCC)cc1O` [cannabidiol, reference compound], the “time for first salivation vs control (significance)” value in [1] (FIG. 4, cannabidiol 30 mg/kg, SEQ ID No. 1 500 μg/kg) was “does not present statistical significance”. Moreover, the “prostration and nasal bleeding” value in [1] (SEQ ID No. 1 500 μg/kg, cannabidiol 30 mg/kg) was “both prostration and the nasal bleeding was observed; also recorded: both prostration and bleeding were observed”.

Consider `CC(C)C[C@H](NC(=O)[C@H](Cc1ccccc1)NC(=O)[C@H](CCCCN)NC(=O)[C@H](Cc1ccccc1)NC(=O)[C@H](CC(N)=O)NC(=O)[C@@H](NC(=O)[C@@H]1CCCN1)C(C)C)C(=O)N[C@@H](CO)C(=O)N[C@@H](Cc1cnc[nH]1)C(=O)O` [Hp, hemopressin], for which, in data set [8] (control sample, n=2), the “area of the HPLC peak, control” value is on record as 140. Further, in [8] (freezing for 24 h), the “area of the HPLC peak after freezing” value came to 97 and the “part lost or degraded by freezing” value is recorded as “approximately 31%”. In [8] (setting [10]), the “area of the HPLC peak after heating” value stood at 50 and the “part lost or degraded upon heating” value was “approximately 64.3%”. For the same molecule, the “% binding to the CB1 receptor in relation to control” value (“% binding to the CB1 receptor” for short) in [9] is 91.33% and 92.74% and 97.05% and 90.23% and 73.49%.

In the case of RVDHp (peptide), the % binding to the CB1 receptor in relation to control was 105 % of control in data set [3]; 115 % of control in data set [4]; 111 % of control in data set [5]; 103 % of control in data set [6]; 112 % of control in [7].

For the molecule “RVDHp: N-extended version of hemopressin, RVD-Hp (pepcan 12) (RVDPVNFKLLSH; Hemoglobin subunit alpha; UniProt P69905 93-104, looked up, fragment)”, in data set [9], the “% binding to the CB1 receptor” value is 103.39% and 111.53% and 110.87% and 114.76% and 105.22%.

Regarding PVNFK [reference compound], the “pain threshold, force” value in [2] (After 3 h) was 55 grams (2×) and 45 grams and 40 grams (2×) and 60 grams; in data set [2] (Immediate) it was 70 grams and 75 grams (3×) and 65 grams and 60 grams.

For FKF, in data set [1], the “time of occurrence of the first salivation” value was 0.38 min and 0.95 min and 0.50 min and 1.50 min; the “time of occurrence of the first signal” value is 5.3 min and 6.35 min and 8.33 min and 8.82 min; the “time of occurrence of the first seizure” value is 10.25 and 6.28 and 8.92 and 3.83 and 7.82; the “time of death occurrence” value is 12.9 min and 13.17 min and 20.67 min and 16.67 min and 13.5 min.

For FKL, in data set [1], the “time of occurrence of the first salivation” value is 0.333 min and 1.6 min and 0.2 min and 0.633 min and 1.5 min; the “time of occurrence of the first signal” value is 9.17 min and 5.67 min and 9.5 min and 8.5 min and 4.5 min; the “time of occurrence of the first seizure” value was 5.3 and 6.35 and 4.83 and 8.82; the “time of death occurrence” value was 14.53 min and 11.7 min and 10.92 min.

Regarding `Cc1c(C(=O)c2cccc3ccccc23)c2cccc3c2n1[C@H](CN1CCOCC1)CO3` [WIN 55212-2], the “% binding to the CB1 receptor” value in data set [9] (listed as Win) is 111.483% and 117.95% and 125.56% and 127.52% and 122.49%.

For the molecule PVNFKFLSH [hemopressin], the % binding to the CB1 receptor in relation to control was 73.5 % of control in data set [3]; 90.2 % of control in [4]; 97 % of control in [5]; 91.3 % of control in [6]; 92.7 % of control in data set [7].

On to NFKF (also: biotin, position not given here) [SEQ ID No. 1-Biotin], for which the % binding to the CB1 receptor in relation to control in data set [3] is 97.5 % of control; in [4], 84.8 % of control; in [5] it was 83.3 % of control; in data set [6], 89.2 % of control; in data set [7], 85.5 % of control.

For the origin of these results see patent US20220098237A1, “COMPOUND, SYNTHESIS INTERMEDIATE, USE, PHARMACEUTICAL COMPOSITION AND NEUROMODULATORY THERAPEUTIC METHOD” (Remer Consultores Assessoria Empresarial Ltda, priority 2017, published 2022).
